From article PMC10459552, “Cardiomyocyte-Targeting Peptide to Deliver Amiodarone” (Pharmaceutics, 2023)
Structures can show the parent of a compound that is named as a salt.

Tests used:
guinea pig hearts = experiment: Optical mapping of voltage and Ca2+ in Langendorff-perfused hearts after daily intraperitoneal injection; conditions: same dosing; for AP and CaT durations compared to control hearts: recovery to 90% of baseline, Figure 4c, e
Protocol: At the end of the study, the GPs were euthanized, the hearts excised and perfused on a Langendorff apparatus with Tyrode’s solution containing (in mM): NaCl (130), KCl (4), MgSO4 (1.2), NaHCO3 (25), Glucose (5), CaCl2 (1.25), and Mannitol (45), and gassed with 95% O2 and 5% CO2, with a pH of 7.0, at 37 °C. The hearts were placed in a custom-designed chamber to subdue the motion artifacts, along with a 15 min blebbistatin (5 µM) in perfusate to minimize the contractions. Bolus injections of voltage (RH237, 25 µL of 2 mg/mL dimethyl sulfoxide (DMSO)) and Ca^2+-indicator dye (Rhod-2/AM, 200 µL of 2 mg/mL DMSO) were injected in the air trap above the aortic cannula. Fluorescence from the epicardium was collected with a camera lens, split with a 570 nm dichroic mirror and focused on two CMOS cameras (Sci-Media UltimaOne, Costa Mesa, CA, USA) capturing the fluorescence emission at 570–595 nm for the cytosolic Ca^2+ and 610–750 nm wavelengths for the voltage, as described in detail previously [33]. After resting sinus rhythm image acquisition, the hearts were paced at 250 ms with programmed stimulation to measure and compare the conduction velocity and transient duration (90%) of various treatment groups.
Adult male GPs (250–350 g) were injected intraperitoneally with amiodarone (80 mg/kg; n = 4) daily for 7 days, CTP–amio (26.3 mg/kg; n = 4) for 5 days, or CTP alone (17.8 mg/kg; n = 4) for 5 days and compared to vehicle-only injected GPs (n = 10). At the end of the injection period, the GPs were euthanized, and their hearts were excised and perfused in a Langendorf apparatus. The hearts were labeled with a voltage-sensitive dye (RH 237) and a Ca^2+ indicator (Rhod-2/AM) with a bolus injection in the perfusate in the air trap above the aortic cannula. Fluorescence images of the heart were focused on 2 CMOS cameras, one to detect voltage and the other intracellular free Ca^2+. The heart rate, action potentials (APs), and intracellular free-Ca^2+ transients (CaT) were measured from 10,000 pixels of the voltage and Ca^2+ CMOS cameras (Supplemental Figure S1). Durations of the APs and CaTs were calculated from the first derivative of the rise of the signals to their recovery to 90% of the baseline.

mice = conditions: biodistribution studies; cited from earlier work
Text: The ability of cationic or hydrophobic cell-penetrating peptides to transduce a wide variety of tissue types in vivo limits their clinical utility because of their lack of cell specificity, leading to a higher chance of off-target adverse side effects. Phage display using libraries of various lengths and various bacteriophage strains have been successfully utilized to identify tissue-specific penetrating peptides. In our prior work, we employed a combinatorial in vitro and in vivo M13 phage display methodology to identify a 12-amino-acid, synthetic, mildly bas ...

[1] = test system: guinea pig hearts (gene expression); experiment: RNA sequencing of treated hearts versus control hearts; assay type: in vivo; conditions: CTP-treated hearts versus controls
Protocol: Libraries were generated with the Illumina Stranded mRNA Library Prep kit (Illumina: 20040534, San Diego, CA, USA), according to the manufacturer’s instructions. RNA was assessed for quality using a Total RNA 15 nt kit (Agilent: DNF-471-33) on an Advanced Analytical 5300 Fragment Analyzer. The RNA concentration was quantified with a Qubit BR RNA assay kit (Invitrogen: Q10211) on a Qubit 4 (Invitrogen: Q33238). Briefly, 50 ng of input RNA was used for each sample. Following adapter ligation, 15 cycles of indexing PCR were completed, using IDT for Illumina RNA UD Indexes (Illumina: 20040553). Library assessment and quantification were performed using Qubit 1x HS DNA (Invitrogen: Q33231) on a Qubit 4 fluorometer and a HS NGS Fragment kit (Agilent: DNF-474-1000). […] The pooled library was loaded at 750 pM, and sequencing was carried out with read lengths of 2 × 101 bp, with an average of ~40 million reads per sample. […]
The raw RNA sequencing (RNA-Seq) paired-end reads for the guinea pig (GP) samples were processed through the Mayo RNA-Seq bioinformatics pipeline, RapMap version 1.0.0. Briefly, the raw reads were trimmed with a base quality cutoff of Phred score Q30 using Trimmomatic. […]
Using the gene-level counts from RapMap, genes differentially expressed between the control and treated groups were assessed using the bioinformatics package edgeR 2.6.2 [37]. […]

Row | Compound | heart rate during sinus rhythm compared to control hearts (guinea pig hearts; Figure 4a) | conduction velocity (CV) of the APs and CaT compared to control hearts (guinea pig hearts; Figure 4b, d) | calcium transients compared to the controls (guinea pig hearts; Rhod-2/AM fluorescence) | AP and CaT durations compared to control hearts (guinea pig hearts) | crossing of the blood–brain barrier (mice) | route of excretion (mice) | expression of α-adrenergic receptors [1] | expression of β-adrenergic receptors [1]
1 | CCCCc1oc2ccccc2c1C(=O)c1cc(I)c(OCCN(CC)CC)c(I)c1 [amiodarone, Amiodarone hydrochloride] | significantly decreased | decreased | significantly decreased | increased | – | – | – | –
2 | NH2-APWHLSSQYSRT-COOH (H-APWHLSSQYSRT-OH) [CTP, 12-amino-acid, synthetic, mildly basic, non-naturally occurring cell-penetrating peptide identified by phage display] | – | – | – | decreased | does not cross | predominantly by a renal followed by a hepatobiliary mechanism | upregulation | downregulation
